We go through three compounds from patent US4321208A, “Preparation of directly iodinated steroid hormones and related compounds” (priority 1976, dated 1982).

The structures appear in SMILES notation.

Assay [1] concerns anti-serum. The conditions noted are these: Abraham and Odell; iodinated at positions 2 and 4; cited from earlier work.
In assay [2] the test system is breast cancer tumor tissue. The conditions noted are these: injected; patients responding to endocrine treatment vs those who do not respond; cited from earlier work.
The subject of assay [3] is antiserum against estradiol-17 beta. Put plainly: Radioimmunoassay: competition of nonradioactive estradiol with ^125 I estradiol-17 beta for antiserum. The assay is classed as binding. The conditions noted are these: antiserum 1:10,000 or 1:20,000; ^125 I estradiol-17 beta 70 Ci/mM. Here is the method:
The procedure of this assay are identical as described by the instant inventor and authors C. […] After incubation, the unbound hormone was removed by charcoal adsorption.

In the case of `C[C@]12CC[C@@H]3c4cc(I)c(O)c(I)c4CC[C@H]3[C@@H]1CC[C@@H]2O`, the binding to anti-serum entry in assay [1] is on record as “unable to bind the anti-serum”.

As to `C[C@]12CC[C@@H]3c4ccc(O)cc4CC[C@H]3[C@@H]1CC[C@@H]2O` [tritiated estradiol], in assay [2], the “concentration of tritiated hormone in tumor tissue” value was “usually concentrate more tritiated hormones in their tumor tissue”.

`C[C@]12CC[C@@H]3c4ccc(O)cc4CC[C@H]3[C@@H]1CC[C@@H]2O` [unlabelled estradiol, estradiol]: in assay [3], the “effect of unlabelled estradiol on percent bound ^125 I estradiol” value is “the percent bound ^125 I estradiol decreases”.
